By DC50 is commonly meant the concentration giving 50% degradation. In general, Emax refers to the greatest response seen or fitted, relative to the assay's reference.

Our source for the DC50 and Emax values is ChEMBL document CHEMBL6096631, “The application of PROTACs in immune-inflammation diseases” (Bioorg Med Chem, 2024).

Common to all, as to type: cell-based
The target of experiment [1] is Protein cereblon/Non-receptor tyrosine-protein kinase TYK2 (Homo sapiens, UniProt P29597+Q96SW2). The experiment is described as follows: PROTAC activity at CRBN/TYK2 in HEL cells assessed as TYK2 degradation incubated for 24 hrs by Western blotting analysis. For orientation: A western blot detects proteins with antibodies after separation by electrophoresis.
The target in experiment [2] is T1, Protein cereblon/Interleukin-1 receptor-associated kinase 4 (Homo sapiens, UniProt Q9NWZ3+Q96SW2). The experiment can be described thus: PROTAC activity at CRBN/IRAK4 in human PBMC cells assessed as induction of degradation measured after 24 hrs by Immuno-blotting analysis.
Target sequence in this assay (Q9NWZ3 whole entry): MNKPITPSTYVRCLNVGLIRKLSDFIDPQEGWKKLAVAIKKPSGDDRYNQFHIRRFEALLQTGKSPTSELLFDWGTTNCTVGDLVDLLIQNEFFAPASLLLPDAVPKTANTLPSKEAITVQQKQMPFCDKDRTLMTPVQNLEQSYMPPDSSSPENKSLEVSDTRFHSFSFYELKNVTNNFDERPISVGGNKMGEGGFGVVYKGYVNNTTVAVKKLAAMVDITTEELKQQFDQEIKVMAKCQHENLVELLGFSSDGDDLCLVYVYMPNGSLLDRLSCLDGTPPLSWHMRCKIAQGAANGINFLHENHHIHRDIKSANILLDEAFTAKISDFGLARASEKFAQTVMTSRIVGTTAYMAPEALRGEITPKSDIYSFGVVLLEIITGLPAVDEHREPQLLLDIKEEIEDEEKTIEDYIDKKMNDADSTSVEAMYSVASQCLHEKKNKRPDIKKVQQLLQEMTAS
Target sequence in this assay (Q96SW2 whole entry): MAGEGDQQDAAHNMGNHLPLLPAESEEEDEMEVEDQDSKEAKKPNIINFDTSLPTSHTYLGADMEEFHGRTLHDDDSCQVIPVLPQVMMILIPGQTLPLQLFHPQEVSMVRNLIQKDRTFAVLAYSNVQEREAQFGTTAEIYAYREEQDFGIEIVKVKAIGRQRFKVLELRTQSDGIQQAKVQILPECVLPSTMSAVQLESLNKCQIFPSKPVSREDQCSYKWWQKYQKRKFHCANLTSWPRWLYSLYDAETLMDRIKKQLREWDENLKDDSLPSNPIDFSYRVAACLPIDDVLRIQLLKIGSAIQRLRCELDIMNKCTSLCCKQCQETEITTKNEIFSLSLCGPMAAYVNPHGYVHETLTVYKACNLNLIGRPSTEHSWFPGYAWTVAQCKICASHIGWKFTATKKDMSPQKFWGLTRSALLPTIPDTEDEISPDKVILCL
Experiment [3] concerns the target T2, von Hippel-Lindau disease tumor suppressor/Receptor-interacting serine/threonine-protein kinase 2 (Homo sapiens, UniProt O43353+P40337). The experiment can be described thus: PROTAC activity at VHL/RIPK2 in human THP-1 cells assessed as RIPK2 degradation by measuring maximal efficacy at 10 nM measured after 16 hrs by Western blot analysis relative to control.
Target sequence in this assay (O43353 whole entry, looked up): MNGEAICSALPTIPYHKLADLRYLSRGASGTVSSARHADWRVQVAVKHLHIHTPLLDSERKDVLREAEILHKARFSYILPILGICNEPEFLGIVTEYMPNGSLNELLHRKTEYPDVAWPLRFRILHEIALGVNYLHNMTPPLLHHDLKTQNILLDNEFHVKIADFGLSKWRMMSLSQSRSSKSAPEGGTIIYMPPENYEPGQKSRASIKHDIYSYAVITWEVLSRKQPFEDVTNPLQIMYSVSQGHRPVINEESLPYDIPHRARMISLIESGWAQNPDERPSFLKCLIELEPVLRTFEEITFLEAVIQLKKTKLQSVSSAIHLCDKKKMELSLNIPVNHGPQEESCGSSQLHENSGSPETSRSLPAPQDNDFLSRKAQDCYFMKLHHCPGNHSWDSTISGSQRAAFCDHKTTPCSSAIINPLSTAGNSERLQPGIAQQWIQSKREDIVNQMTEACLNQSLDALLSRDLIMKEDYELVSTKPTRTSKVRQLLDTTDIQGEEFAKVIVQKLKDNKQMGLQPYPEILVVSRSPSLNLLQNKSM
Target sequence in this assay (P40337 whole entry, looked up): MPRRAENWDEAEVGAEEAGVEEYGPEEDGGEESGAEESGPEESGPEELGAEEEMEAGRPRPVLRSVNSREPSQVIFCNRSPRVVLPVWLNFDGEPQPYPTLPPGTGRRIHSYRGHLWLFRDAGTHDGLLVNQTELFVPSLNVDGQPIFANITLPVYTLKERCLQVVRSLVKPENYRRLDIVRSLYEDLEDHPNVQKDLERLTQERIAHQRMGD

For experiment [4], the target named is T3, von Hippel-Lindau disease tumor suppressor/Mitogen-activated protein kinase 14 (Homo sapiens, UniProt Q16539+P40337). The experiment can be described thus: PROTAC activity at VHL/p38alpha in human THP-1 cells assessed as induction of protein degradation by measuring maximal efficacy at 10 uM incubated for 16 hrs by Western blot analysis relative to control.
Target sequence in this assay (P40337 whole entry partner): as the sequence (P40337 whole entry, looked up) above
Target sequence in this assay (Q16539 2-360 limits assumed): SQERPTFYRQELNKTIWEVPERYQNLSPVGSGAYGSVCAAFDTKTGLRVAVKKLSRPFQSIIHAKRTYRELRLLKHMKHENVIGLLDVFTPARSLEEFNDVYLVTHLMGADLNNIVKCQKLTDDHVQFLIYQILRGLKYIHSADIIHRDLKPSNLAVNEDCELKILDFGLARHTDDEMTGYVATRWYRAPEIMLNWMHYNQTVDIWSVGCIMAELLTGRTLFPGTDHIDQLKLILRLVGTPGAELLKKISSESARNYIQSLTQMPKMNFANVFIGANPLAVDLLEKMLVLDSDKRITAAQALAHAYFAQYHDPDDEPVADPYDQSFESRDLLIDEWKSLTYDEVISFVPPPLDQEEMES

Experiment [5] addresses T3, von Hippel-Lindau disease tumor suppressor/Mitogen-activated protein kinase 14. The experiment is described as follows: PROTAC activity at VHL/p38alpha in human THP-1 cells assessed as MAPK degradation incubated for 16 hrs by Western blot analysis.
Target sequence in this assay (Q16539 whole entry): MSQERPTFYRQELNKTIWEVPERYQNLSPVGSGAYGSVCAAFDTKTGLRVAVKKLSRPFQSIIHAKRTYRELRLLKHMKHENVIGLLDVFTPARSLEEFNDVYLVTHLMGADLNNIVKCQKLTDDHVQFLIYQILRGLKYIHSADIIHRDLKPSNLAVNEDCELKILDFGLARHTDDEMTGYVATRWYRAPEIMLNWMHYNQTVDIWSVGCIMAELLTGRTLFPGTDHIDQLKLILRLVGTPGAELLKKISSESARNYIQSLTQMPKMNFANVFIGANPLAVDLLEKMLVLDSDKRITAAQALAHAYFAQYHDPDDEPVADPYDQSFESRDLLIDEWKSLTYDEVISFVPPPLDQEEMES
Target sequence in this assay (P40337 whole entry): as the sequence (P40337 whole entry, looked up) above
Experiment [6] concerns the target T4, von Hippel-Lindau disease tumor suppressor/Interleukin-1 receptor-associated kinase 4 (Homo sapiens, UniProt Q9NWZ3+P40337). The experiment is described as follows: PROTAC activity at VHL E3 ligase/IRAK4 in human PBMC cells assessed as induction of degradation of IRAK4 incubated for 16 hrs by immunoblot analysis relative to control.
Target sequence in this assay (P40337 whole entry, looked up): as above
Target sequence in this assay (Q9NWZ3 whole entry, looked up): as the sequence (Q9NWZ3 whole entry) above
Experiment [7] addresses T4, von Hippel-Lindau disease tumor suppressor/Interleukin-1 receptor-associated kinase 4. The experiment can be described thus: PROTAC activity at VHL E3 ligase/IRAK4 in human PBMC cells assessed as induction of degradation of IRAK4 incubated overnight by immunoblot analysis.
Target sequence in this assay (Q9NWZ3 whole entry): as above
Target sequence in this assay (P40337 whole entry): as the sequence (P40337 whole entry, looked up) above
In experiment [8] the target is T1, Protein cereblon/Interleukin-1 receptor-associated kinase 4. The experiment can be described thus: PROTAC activity at CRBN/IRAK4 in human KARPAS-299 cells assessed as induction of IRAK4 degradation.
Target sequence in this assay (Q9NWZ3 whole entry): as the sequence (Q9NWZ3 whole entry) above
Target sequence in this assay (Q96SW2 whole entry): as the sequence (Q96SW2 whole entry) above
A short description of experiment [9]: PROTAC activity at VHL/human p38alpha in MDA-MB-231 cells assessed as p38alpha degradation.
Experiment [10] deals with T5, Protein cereblon/Tyrosine-protein kinase BTK (Homo sapiens, UniProt Q06187+Q96SW2). The experiment is described as follows: PROTAC activity at CRBN/BTK in human Huh-7 cells assessed as protein degradation.
Target sequence in this assay (Q06187 whole entry): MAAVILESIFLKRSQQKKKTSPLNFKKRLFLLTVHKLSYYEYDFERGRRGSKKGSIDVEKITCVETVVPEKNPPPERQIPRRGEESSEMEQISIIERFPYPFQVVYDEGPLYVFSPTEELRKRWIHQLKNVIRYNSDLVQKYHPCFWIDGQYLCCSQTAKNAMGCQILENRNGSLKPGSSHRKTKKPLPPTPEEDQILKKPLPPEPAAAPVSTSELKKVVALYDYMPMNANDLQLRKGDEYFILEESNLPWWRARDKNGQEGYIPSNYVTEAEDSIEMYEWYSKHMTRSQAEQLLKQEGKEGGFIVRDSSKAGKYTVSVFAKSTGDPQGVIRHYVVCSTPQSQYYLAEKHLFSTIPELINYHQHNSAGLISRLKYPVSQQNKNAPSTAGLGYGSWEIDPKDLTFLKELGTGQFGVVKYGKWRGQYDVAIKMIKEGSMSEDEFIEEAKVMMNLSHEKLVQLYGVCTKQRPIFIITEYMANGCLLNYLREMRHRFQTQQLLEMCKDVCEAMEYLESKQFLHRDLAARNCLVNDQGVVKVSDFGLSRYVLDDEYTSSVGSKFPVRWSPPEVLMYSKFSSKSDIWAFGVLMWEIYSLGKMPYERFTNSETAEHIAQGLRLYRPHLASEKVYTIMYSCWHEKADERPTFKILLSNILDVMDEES
Target sequence in this assay (Q96SW2 whole entry): as the sequence (Q96SW2 whole entry) above
Experiment [11] addresses T1, Protein cereblon/Interleukin-1 receptor-associated kinase 4. The experiment is described as follows: PROTAC activity at CRBN/IRAK4 in human HEK293T cells assessed as induction of protein degradation by measuring maximal efficacy at 10 uM measured after 24 hrs by immunoblotting analysis relative to control.
Target sequence in this assay (Q96SW2 whole entry, looked up): as the sequence (Q96SW2 whole entry) above
Target sequence in this assay (Q9NWZ3 whole entry, looked up): as the sequence (Q9NWZ3 whole entry) above
Experiment [12] concerns the target T2, von Hippel-Lindau disease tumor suppressor/Receptor-interacting serine/threonine-protein kinase 2. The experiment can be described thus: PROTAC activity at VHL/RIPK2 in human THP-1 cells assessed as RIPK2 degradation measured after 16 hrs by Western blot analysis.
Target sequence in this assay (O43353 whole entry): as the sequence (O43353 whole entry, looked up) above
Target sequence in this assay (P40337 whole entry): as the sequence (P40337 whole entry, looked up) above
The target of experiment [13] is T5, Protein cereblon/Tyrosine-protein kinase BTK. The experiment is described as follows: PROTAC activity at CRBN/BTK in human Ramos cells assessed as protein degradation.
Target sequence in this assay (Q06187 whole entry): as the sequence (Q06187 whole entry) above
Target sequence in this assay (Q96SW2 whole entry): as the sequence (Q96SW2 whole entry) above
Experiment [14] has the same target. The experiment is described as follows: PROTAC activity at CRBN/BTK in human Ramos cells assessed as induction of protein degradation by measuring maximal efficacy at 10 uM relative to control.
Target sequence in this assay (Q06187 2-659 limits assumed): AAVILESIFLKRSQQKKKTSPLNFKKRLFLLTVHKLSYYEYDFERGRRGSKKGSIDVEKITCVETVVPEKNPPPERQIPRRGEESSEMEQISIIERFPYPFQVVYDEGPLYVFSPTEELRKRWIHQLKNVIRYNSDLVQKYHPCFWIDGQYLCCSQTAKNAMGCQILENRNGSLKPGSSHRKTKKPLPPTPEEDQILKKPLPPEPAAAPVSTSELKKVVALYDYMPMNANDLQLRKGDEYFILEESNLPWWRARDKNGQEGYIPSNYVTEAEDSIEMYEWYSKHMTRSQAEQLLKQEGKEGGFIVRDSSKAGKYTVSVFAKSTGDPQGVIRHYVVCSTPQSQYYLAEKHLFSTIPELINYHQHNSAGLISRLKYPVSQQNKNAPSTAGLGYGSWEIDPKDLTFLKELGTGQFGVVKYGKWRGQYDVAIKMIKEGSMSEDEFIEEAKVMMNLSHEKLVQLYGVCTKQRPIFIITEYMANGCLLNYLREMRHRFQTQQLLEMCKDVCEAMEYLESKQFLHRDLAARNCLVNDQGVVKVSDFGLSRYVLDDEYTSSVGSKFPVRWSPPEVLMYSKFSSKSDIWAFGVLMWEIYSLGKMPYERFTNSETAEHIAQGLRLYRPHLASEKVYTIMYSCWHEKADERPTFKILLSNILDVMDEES
Target sequence in this assay (Q96SW2 whole entry partner): as the sequence (Q96SW2 whole entry) above

Take `CNC(=O)c1cnc(Nc2ccc(C(=O)NCCCCCCCCCC(=O)N[C@H](C(=O)N3C[C@H](O)C[C@H]3C(=O)NCc3ccc(-c4scnc4C)cc3)C(C)(C)C)cn2)cc1Nc1cccc(-c2ncn(C)n2)c1OC`: in experiment [1], the DC50 worked out at 14 nM.

In the case of `CC[C@@H]1[C@H](F)C(=O)N[C@@H]1COc1ncc(C#CCN2CCC3(CC2)CCN(c2ncc(C(=O)N[C@H](C(=O)N4C[C@H](O)C[C@H]4C(=O)NCc4ccc(-c5scnc5C)cc4)C(C)(C)C)cn2)CC3)c2cc(C(N)=O)c(OC)cc12`, in experiment [2], the DC50 was 151 nM.

In the case of `Cc1ncsc1-c1ccc(CNC(=O)[C@@H]2C[C@@H](O)CN2C(=O)[C@@H](NC(=O)COCCOCCOCCOCCOc2cc3nccc(Nc4ccc5scnc5c4)c3cc2S(=O)(=O)C(C)(C)C)C(C)(C)C)cc1`, in [3], the Emax stood at 95%.

As to `COc1cc2c(Oc3ccc(NC(=O)C4(C(=O)Nc5ccc(F)cc5)CC4)cc3F)ccnc2cc1OCCOCCOCCOc1cc(-c2scnc2C)ccc1CNC(=O)[C@@H]1C[C@@H](O)CN1C(=O)[C@H](C(C)C)N1Cc2ccccc2C1=O`, in experiment [4], the Emax is 99.4%. In addition, in experiment [5], the DC50 came out at 46.2 nM.

On to `CCn1nc(C)cc1C(=O)Nc1nc2cc(C(=O)NCCCCCCCCC(=O)N[C@H](C(=O)N3C[C@H](O)C[C@H]3C(=O)NCc3ccc(-c4scnc4C)cc3)C(C)(C)C)cc(OC)c2n1C/C=C/Cn1c(NC(=O)c2cc(C)nn2CC)nc2cc(C(N)=O)cc(OCCCN3CCOCC3)c21`, for which the Emax in experiment [6] was 91.7%. The half-maximal degradation concentration (DC50) in experiment [7] was 227 nM.

As to `O=C1CCC(N2C(=O)c3cccc(N4CCN(C(=O)C5CCN(c6ccc(NC(=O)c7cnc(Oc8ccccc8)nc7)cc6)CC5)CC4)c3C2=O)C(=O)N1` (centres undefined), the DC50 in experiment [8] was 17.3 nM.

As for `O=C(/C=C/C(=O)Nc1ccc(NC(=O)c2ccc([N+](=O)[O-])o2)cc1)NCCCCCCNc1cccc2c1C(=O)N(C1CCC(=O)NC1=O)C2=O` (centres undefined), in experiment [7], the DC50 was 3.2 nM.

On to `Cc1ccc(C(=O)NCCCCc2cn(CCCC(=O)NCCCCNc3cccc4c3C(=O)N(C3CCC(=O)NC3=O)C4=O)nn2)cc1-n1c(C)cc(OCc2ccc(F)cc2F)c(Br)c1=O` (centres undefined), for which the DC50 in experiment [9] is 48.9 nM.

As to `COc1cc(C)c(Sc2cnc(NC(=O)c3ccc(N4CCN(CCCCCCCNC(=O)COc5cccc6c5C(=O)N(C5CCC(=O)NC5=O)C6=O)CC4)cc3)s2)cc1C(=O)N1CCN(C(C)=O)CC1` (centres undefined), in experiment [10], the DC50 worked out at 17 nM.

Regarding `CC(C)Nc1cc(-n2ccc3cc(C#N)cnc32)ncc1C(=O)N[C@H]1CC[C@H](C(=O)NCCOCCNC(=O)COc2cccc3c2C(=O)N(C2CCC(=O)NC2=O)C3=O)CC1` (some centres undefined), the maximal response (Emax) in [11] stood at 90%.

As to `COc1cc2c(Oc3ccc(NC(=O)C4(C(=O)Nc5ccc(F)cc5)CC4)cc3F)ccnc2cc1OCCCCOCCCCOCC(=O)N[C@H](C(=O)N1C[C@H](O)C[C@H]1C(=O)NCc1ccc(-c2scnc2C)cc1)C(C)(C)C`, the maximal response (Emax) in experiment [4] was 97.4%.

Regarding `Cc1ccc(C(=O)NCCCCc2cn(CCCC(=O)NCCCCCCc3cccc4c3CN(C3CCC(=O)NC3=O)C4=O)nn2)cc1-n1c(C)cc(OCc2ccc(F)cc2F)c(Br)c1=O` (centres undefined), in experiment [9], the DC50 was 19.1 nM.

For the compound `CN[C@@H](C)C(=O)N[C@H](C(=O)N1CCC[C@H]1c1nc(C(=O)c2ccc(F)cc2)cs1)C1CCN(C(=O)c2cnc(N3CCN(CCOc4cc5ncnc(Nc6n[nH]c(C)c6C)c5cc4S(=O)(=O)C(C)(C)C)CC3)nc2)CC1`, the maximum response (Emax) in experiment [3] was 94.3%. For the same compound, in [12], the 50% degradation concentration (DC50) came out at 9.4 nM.

On to `CN[C@H](C)C(=O)N[C@@H](C(=O)N1C[C@H](NC(=O)c2cnc(N3CCN(CCCOc4cc5ncnc(Nc6n[nH]c(C)c6C)c5cc4S(=O)(=O)C(C)(C)C)CC3)cn2)C[C@@H]1C(=O)Nc1c(F)cccc1F)C(C)(C)C`, for which, in [3], the Emax was 90%.

For `Nc1ncnc2c1c(-c1ccc(Oc3ccccc3)cc1)nn2C1CCN(C(=O)CN2CCN(CC3CN(c4ccc5c(c4)C(=O)N(C4CCC(=O)NC4=O)C5=O)C3)CC2)CC1` (centres undefined), the DC50 in experiment [13] is 3.18 nM. Moreover, the maximum response (Emax) in [14] worked out at 99.9%.
